Laboratory results: patent US20110165085A1, “TUMOR SELECTIVE FLUORESCENT STAINING AGENT” (THE UNIVERSITY OF TOKYO, priority 2006, published 2011)

How the values were obtained:
[1] = system: intracellular esterase (RGK1 and RGM1 cell lysates); experiment: Hydrolytic enzyme activity for FDA in the two types of cell lysates; format: biochemical, rat
Source text: FDA is an esterase-sensitive fluorescent probe, and it enters into a cell by diffusion, then is hydrolyzed by an intracellular esterase to produce a fluorescent fluorescein, and gradually leaks out of the cell. Since the fluorescein is more hydrophilic compared with FDA, the leakage of the fluorescein out of the cell occurs much more slowly than the uptake of FDA into the cell. This process was compared for the normal cells and the cancer cells.

[2] = system: RGK1 (transformed, cancer model) and RGM1 (normal gastric mucosal epithelium) cells; experiment: Flow cytometry screening: average fluorescence intensity ratio of RGK1 relative to RGM1; format: cell-based, rat
Protocol: Screening for candidate compounds was performed in a cultured cell system. As cultured cells, rat normal gastric mucosal epithelium derived cells, RGM1, and transformed cells thereof, RGK1, were used as model cells of normal cell and cancer cell, respectively. For the culture of RGM1 and RGK1, a DMEM/HAM F12 (1:1) medium (10% FBS, 0.1% penicillin streptomycin) was used. Each of the compounds shown below (concentration: 0-1 μM) was loaded on these cells for 10 minutes, then the medium was replaced with the medium not containing the compounds, and after a given time, average fluorescence intensity was determined by flow cytometry. Effectiveness of each compound was evaluated on the basis of average of fluorescence intensity ratio of RGK1 relative to RGM1.
Various ester derivatives converted from acetyl ester of FDA shown in Table I were compared by flow cytometry in the same manner as that used in Example 1.

[3] = system: cancer cells and normal cells; experiment: Imaging of cancer and normal cells under a fluorescence microscope; format: cell-based, rat; conditions: fluorescence microscope IX71, excitation 470-490 nm, filter 500 nm
Protocol: Imaging was performed by using FDAcr under a fluorescence microscope.

esophagus cancer lesion = experiment: Fluorescence endoscopic imaging of NMBA rat esophagus cancer model; format: in vivo; conditions: endoscope (FIG. 4)
Protocol: By using FDAcr, imaging of an NMBA rat, an esophagus cancer model, was performed. A rat (10-week old, male) was subcutaneously injected with 1 mg of NMBA 5 times per week for the first to 5th weeks, and once per week for 6th to 15th weeks, and used for the experiment after 16th week. The rat was anesthetized by intraperitoneal administration of Nembutal (1 mL/kg body weight) and fixed on a rest in the dorsal position to maintain the airway. An endoscope was inserted into the esophagus for observation. […] In the same manner as Example 5, a fluorescent endoscopic image was obtained by using Cy-7, a cyanine near-infrared fluorescent dye.

colon cancer lesion = experiment: Fluorescence endoscopic imaging of colon cancer model rat; format: in vivo; conditions: enema 15 ml of 100 μM in PBS, 3 minutes, fiberscope (FIG. 5)
Protocol: By using FEAcr, imaging of a colon cancer model rat was performed. A colon cancer model rat was anesthetized with ether, and inside the colon was washed with 0.6% aqueous acetic acid. The inside of the colon was washed two to three times with PBS maintained at 37° C., and then an enema with 15 ml of 100 μM FDAcr (PBS solution) was performed from the anus and the anus was clogged to stand for 3 minutes. After 3 minutes, the inside of the colon was washed two to three times with PBS maintained at 37° C. A fiberscope (BF-3C40) was inserted in the colon to observe pathological legions.

Compound	hydrolytic activity for FDA, RGK1 versus RGM1 [1]	average of fluorescence intensity ratio of RGK1 relative to RGM1 ([2]; compound 0-1 μM loaded 10 minutes, medium replaced, flow cytometry after a given time, among candidate compounds (FIG. 1))	fluorescence in cancer cells versus normal cells [3]	fluorescence intensity around esophagus cancer lesion versus normal tissues (esophagus cancer lesion)	performance for distinguishing cancer cells from normal cells (fluorescence intensity ratio) ([2]; flow cytometry as in Example 1, compared among ester derivatives of Table 1 (FIG. 2))	fluorescence at colon cancer lesion (colon cancer lesion)
CC(=O)Oc1ccc2c(c1)Oc1cc(OC(C)=O)ccc1C21OC(=O)c2ccccc21 [FDA, fluorescein diacetate]	about twice higher hydrolytic activity	highest fluorescence intensity ratio	–	–	–	–
C=CC(=O)Oc1ccc2c(c1)Oc1cc(OC(=O)C=C)ccc1C21OC(=O)c2ccccc21 [FDAcr, fluorescein diacrylate]	–	–	Strong fluorescence was observed in the cancer cells	higher than that of normal tissues	superior performance for distinguishing cancer cells from normal cells	Strong fluorescence was observed at each colon cancer lesion
